Experimental findings from US20260001853A1, “ASCORBIC ACID DERIVATIVE OR SALT THEREOF, AND COSMETIC THEREOF” (SEIWA KASEI COMPANY, LIMITED, priority 2022, published 2026) are described below.

The structures appear in SMILES notation.

The test system of data set [1] is Normal human epidermal keratinocytes. Description: Antioxidant test (ROS production after H2O2 treatment, DCFHDA probe). In kind it is cell-based. Particulars: sample at a concentration of 10 mM or less, 24 h culture, 0.2 mM H2O2 for 2 hours, ROS per unit protein, N=4. The method, then:
Normal human epidermal keratinocytes were seeded in a 96-well plate using KG2 medium to a cell density of 2.0×10^4 cells/well. After 24 hours of pre-incubation, samples adjusted to a predetermined concentration with KG2 medium were added to each well. After 24 hours of culture and removal of the medium, the wells were washed with HBSS(−) and the ROS-reactive fluorescent probe DCFHDA was allowed to incorporate for 30 minutes. The wells were washed again with HBSS(—), treated with 0.2 mM H2O2, and cultured for 2 hours. The fluorescence intensity was measured, and the amount of ROS produced per unit protein was calculated by dividing the fluorescence intensity by the amount of protein quantified by the BCA method.
The antioxidant effect when the sample was measured at a concentration of 10 mM or less was expressed as follows. The measurement was performed with N=4. • <20%: ± • 20-40%: + • 40-70%: ++ • 70-100%: +++

For data set [2], the system named is Normal human dermal fibroblasts (NHDF). As to the kind of experiment: Hyaluronic acid production promoting effect (ELISA of supernatant). In kind it is cell-based. The note with it: amount of hyaluronic acid produced, % with control group taken as 100%; sample at 10 mmol/L or less, 48 hours, N=3. The essentials: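 NHDF pre-incubated 24 h, then exposed to samples at 10 mmol/L or less in serum-free D-MEM for 48 h. Supernatant hyaluronic acid quantified by ELISA, N=3, expressed as % of control (100%) and scored ± (<100%), + (100-120%), ++ (120-150%), +++ (150%).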

The nature of data set [3]: Stability test (residual rate by HPLC, odor, coloring). In kind it is physicochemical. The note with it: 1% aqueous solution; for Coloring / Odor: total score of 10 panelists. The essentials:
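A 1% aqueous solution of each test sample was brought to pH 6 with dilute potassium hydroxide aqueous solution, sealed in a 50 mL screw tube, and stored. Residual rate was calculated from HPLC peak area on a Shimadzu liquid chromatograph. Ten panelists scored odor and coloring on a 1–3 scale each, and the summed scores were classified.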

The test system of data set [4] is Normal human dermal fibroblasts. Description: Collagen production promoting effect (ELISA of supernatant). In kind it is cell-based. The note with it: amount of collagen produced, % with control group taken as 100%; sample at 10 mmol/L or less, 48 hours, N=3. In short, it runs like this:
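Fibroblasts in D-MEM with 5% FBS were pre-incubated 24 h, then exposed to samples for 48 h. Free collagen in supernatant quantified by ELISA (N=3), expressed as % of control (control = 100%) at ≤10 mmol/L, scored ± (<100%), + (100-120%), ++ (120%).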
(ELISA stands for enzyme-linked immunosorbent assay.)

Data set [5] deals with B16 melanoma 4A5 cells. Description: Melanin production inhibitory effect (theophylline-induced melanin production). In kind it is cell-based, mouse. The note with it: melanin production inhibition rate, sample at a concentration of 10 mM or less, 3 days culture, theophylline 1 mmol/L, N=4. The essentials: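 Mouse B16 4A5 cells cultured 24 h in D-MEM/10% FBS, then 3 days with 1 mmol/L theophylline (final) plus sample at 10 mM or less. Melanin measured by alkali solubilization (1 mol/L NaOH, 60° C, 30 min, A405) against synthetic melanin standard, normalized to BCA protein. Inhibition rate relative to normal and control groups, scored as graded ranges; N=4.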

[6] abbreviates: pH 6, stored at 50° C., four weeks later.
Where [7] appears, read: pH 6, stored at 50° C., two weeks later.

Consider `CC(C)(O)COC1=C(O)[C@@H]([C@@H](O)CO)OC1=O` [Synthesis Example 1, 2-O-(2-hydroxyisobutyl) ascorbic acid], for which the “Antioxidant Effects” value in data set [1] is on record as “++ (40-70%: ++)”. The “Hyaluronic acid production promoting effect” value in data set [2] is listed as “+ (100-120%: +)”. Moreover, in data set [3] (pH 6, 50° C., initial), the Residual rate entry is “⊚ (⊚: 90% or more)”, the Coloring entry is recorded as “◯ (◯: Total score of 10 panelists is 25 or more)” and the Odor entry is reported as “◯ (◯: Total score of 10 panelists is 20-24)”. In data set [3] (setting [6]), the Residual rate entry was “⊚ (⊚: 90% or more)”, the Coloring entry is listed as “◯ (◯: Total score of 10 panelists is 25 or more)” and the Odor entry is “◯ (◯: Total score of 10 panelists is 20-24)”. For the same molecule, in data set [3] (setting [7]), the Residual rate entry is “⊚ (⊚: 90% or more)”, the Coloring entry was “◯ (◯: Total score of 10 panelists is 25 or more)” and the Odor result is reported as “◯ (◯: Total score of 10 panelists is 20-24)”. Besides, the “Collagen production promoting effect” value in data set [4] was “++ (120%: ++)”. Further, in data set [5], the “Melanin production inhibition effect” value is recorded as “++ (40-60%: ++)”.
Take `CC(C)(O)COC1=C(O)C(=O)O[C@@H]1[C@@H](O)CO` [Synthesis Example 2, 3-O-(2-hydroxyisobutyl) ascorbic acid]: the “Antioxidant Effects” value in data set [1] is listed as “++ (40-70%: ++)”. Also, the “Hyaluronic acid production promoting effect” value in data set [2] is given as “+ (100-120%: +)”. Moreover, in data set [3] (pH 6, 50° C., initial), the Residual rate entry is reported as “⊚ (⊚: 90% or more)”, the Coloring entry is “◯ (◯: Total score of 10 panelists is 25 or more)” and the Odor result is listed as “◯ (◯: Total score of 10 panelists is 20-24)”. In data set [3] (setting [6]), the Residual rate result was “⊚ (⊚: 90% or more)”, the Coloring entry is on record as “◯ (◯: Total score of 10 panelists is 25 or more)” and the Odor result was “◯ (◯: Total score of 10 panelists is 20-24)”. In data set [3] (setting [7]), the Residual rate result is on record as “⊚ (⊚: 90% or more)”, the Coloring result was “◯ (◯: Total score of 10 panelists is 25 or more)” and the Odor result was “◯ (◯: Total score of 10 panelists is 20-24)”. The “Collagen production promoting effect” value in data set [4] is “+ (100-120%: +)”. The “Melanin production inhibition effect” value in data set [5] is given as “+ (20-40%: +)”.
